Values joined by “and” are separate entries in the source; they are usually repeats but may differ in a detail not shown here. Identical values can stand only once.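 Five compound concentrations were applied to cells in 96-well plates for 48 hours; endpoints were derived by simple linear interpolation of the resulting dose-response curve. GI50 = concentration required for 50% inhibition of growth. TGI is the concentration that stops growth completely.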
Assays:
Test in all cases: NCI tumour cell line growth inhibition, 48 h
[1] = tested on: HOP-62 NSCLC
[2] = tested on: NCI-H23 lung
[3] = tested on: 786-0 renal
[4] = tested on: SN12C renal
[5] = tested on: A498 renal
[6] = tested on: A549 NSCLC
[7] = tested on: DLD-1 colon
[8] = tested on: U251 CNS
[9] = tested on: KM12 colon
[10] = tested on: M19-MEL melanoma
[11] = tested on: HCC-2998 colon
[12] = tested on: IGROV1 ovarian
[13] = tested on: OVCAR-5 ovarian
[14] = tested on: SR leukemia
[15] = tested on: HT29 colon
[16] = tested on: RPMI-8226 leukemia
[17] = tested on: MALME-3M melanoma
[18] = tested on: SN12K1 renal
[19] = tested on: MDA-MB-435
[20] = tested on: SNB-75 CNS
[21] = tested on: DMS 273 small cell lung
[22] = tested on: UO-31 renal
[23] = tested on: NCI-H226 lung
[24] = tested on: P388 leukemia
[25] = tested on: SNB-19 CNS
[26] = tested on: RXF 393 renal
[27] = tested on: SF-539 CNS
[28] = tested on: SNB-78 CNS
[29] = tested on: K-562 leukemia
[30] = tested on: PC-3 prostate
[31] = tested on: KM20L2 colon
[32] = tested on: MCF7 breast
[33] = tested on: SK-OV-3 ovarian
[34] = tested on: SW-620 colon
[35] = tested on: P388/ADR leukemia
[36] = tested on: COLO 205 colon
[37] = tested on: MOLT-4 leukemia
[38] = tested on: OVCAR-4 ovarian
[39] = tested on: CCRF-CEM leukemia
[40] = tested on: DMS 114 small cell lung
[41] = tested on: OVCAR-8 ovarian
[42] = tested on: SK-MEL-28 melanoma
[43] = tested on: EKVX NSCLC
[44] = tested on: SK-MEL-5 melanoma
[45] = tested on: ACHN renal
[46] = tested on: SK-MEL-2 melanoma
[47] = tested on: HCT-15 colon
[48] = tested on: NCI-H522 lung
[49] = tested on: SF-268 CNS
[50] = tested on: HL-60(TB) leukemia
[51] = tested on: T-47D breast
[52] = tested on: NCI-H460 lung
[53] = tested on: LOX IMVI melanoma
[54] = tested on: NCI/ADR-RES ovarian
[55] = tested on: UACC-62 melanoma
[56] = tested on: HOP-18 NSCLC
[57] = tested on: MDA-MB-231 breast
[58] = tested on: OVCAR-3 ovarian
[59] = tested on: CAKI-1 renal
[60] = tested on: UACC-257 melanoma
[61] = tested on: SF-295 CNS
[62] = tested on: HOP-92 NSCLC
[63] = tested on: HCT-116 colon

Compound: Nc1nc2c(ncn2C2OC(CO)C(O)C2O)c(=O)[nH]1 (stereo not given)
- TGI [1]: 211 µM
- TGI [2]: 175 µM
- GI50 [3]: > 100 µM
- TGI [3]: > 100 µM
- GI50 [4]: > 100 µM
- TGI [4]: > 100 µM and 162 µM
- TGI [5]: 8.79 µM
- GI50 [6]: > 100 µM and 15.8 µM
- TGI [6]: > 100 µM and 170 µM
- TGI [7]: 142 µM
- GI50 [8]: > 100 µM
- TGI [8]: > 100 µM and 237 µM
- GI50 [9]: > 100 µM
- TGI [9]: > 100 µM and 224 µM
- TGI [10]: 206 µM
- GI50 [11]: 78.7 µM
- TGI [11]: > 100 µM and 245 µM
- GI50 [12]: > 100 µM
- TGI [12]: > 100 µM and 170 µM
- TGI [13]: > 100 µM and 291 µM
- GI50 [14]: > 100 µM
- TGI [14]: > 100 µM
- GI50 [15]: > 100 µM
- TGI [15]: > 100 µM and 196 µM
- GI50 [16]: > 100 µM and 30.8 µM
- TGI [16]: > 100 µM and 139 µM
- GI50 [17]: 24.1 µM and 176 µM
- TGI [17]: 55.4 µM and 285 µM
- TGI [18]: 259 µM
- GI50 [19]: > 100 µM
- TGI [19]: > 100 µM
- GI50 [20]: > 100 µM
- TGI [20]: > 100 µM and 38 µM
- TGI [21]: 159 µM
- GI50 [22]: > 100 µM
- TGI [22]: > 100 µM and 204 µM
- TGI [23]: 224 µM
- TGI [24]: 44.5 µM
- TGI [25]: > 100 µM and 21.6 µM
- TGI [26]: 162 µM
- GI50 [27]: > 100 µM
- TGI [27]: > 100 µM and 160 µM
- TGI [28]: 300 µM
- GI50 [29]: > 100 µM
- TGI [29]: > 100 µM and 233 µM
- GI50 [30]: > 100 µM
- TGI [30]: > 100 µM
- TGI [31]: 214 µM
- GI50 [32]: > 100 µM
- TGI [32]: > 100 µM and 223 µM
- TGI [33]: > 100 µM and 263 µM
- GI50 [34]: > 100 µM
- TGI [34]: > 100 µM and 241 µM
- TGI [35]: 80.3 µM
- GI50 [36]: > 100 µM
- TGI [36]: > 100 µM and 113 µM
- GI50 [37]: 35.7 µM
- TGI [37]: > 100 µM and 121 µM
- GI50 [38]: > 100 µM
- TGI [38]: > 100 µM and 215 µM
- GI50 [39]: 13.5 µM
- TGI [39]: > 100 µM and 217 µM
- TGI [40]: 214 µM
- GI50 [41]: > 100 µM and 15 µM
- TGI [41]: > 100 µM and 204 µM
- TGI [42]: > 100 µM and 265 µM
- GI50 [43]: > 100 µM
- TGI [43]: > 100 µM and 146 µM
- GI50 [44]: > 100 µM
- TGI [44]: > 100 µM and 103 µM
- GI50 [45]: > 100 µM
- TGI [45]: > 100 µM
- GI50 [46]: > 100 µM
- TGI [46]: > 100 µM and 158 µM
- GI50 [47]: > 100 µM and 20.7 µM
- TGI [47]: > 100 µM and 191 µM
- GI50 [48]: > 100 µM
- TGI [48]: > 100 µM and 149 µM
- GI50 [49]: > 100 µM
- TGI [49]: > 100 µM and 281 µM
- GI50 [50]: > 100 µM
- TGI [50]: > 100 µM and 99.7 µM
- GI50 [51]: > 100 µM
- TGI [51]: > 100 µM
- GI50 [52]: > 100 µM and 15.5 µM
- TGI [52]: > 100 µM and 154 µM
- GI50 [53]: > 100 µM
- TGI [53]: > 100 µM and 145 µM
- GI50 [54]: > 100 µM
- TGI [54]: > 100 µM and 238 µM
- GI50 [55]: > 100 µM
- TGI [55]: > 100 µM and 175 µM
- TGI [56]: 300 µM
- GI50 [57]: > 100 µM
- TGI [57]: > 100 µM
- TGI [58]: 235 µM
- GI50 [59]: 55.5 µM
- TGI [59]: > 100 µM and 214 µM
- GI50 [60]: > 100 µM and 20.8 µM
- TGI [60]: > 100 µM and 282 µM
- TGI [61]: > 100 µM and 184 µM
- GI50 [62]: > 100 µM and 82.5 µM
- TGI [62]: > 100 µM and 263 µM
- GI50 [63]: > 100 µM
- TGI [63]: > 100 µM and 201 µM

From PubChem BioAssay (NCI)
